This is an account of results in publication PMC12227560, “Total synthesis of a sorrentanone ester library and evaluation of its antimicrobial potential” (Scientific Reports, 2025).

≈ marks a conversion by molar mass, not a printed value.

The test system of series [1] is B. subtilis ATCC6633. In words: Antimicrobial broth micro-dilution assay (MIC). In kind it is cell-based. The following applies: Bacillus subtilis; B. subtilis ATCC6633; 24 h at 37 °C; highest tested concentration 250 µg/mL; read-out: Minimum inhibitory concentration (MIC). The text has this:
(§1) 3. Bioactivity and Toxicity Assays
(§2) Antimicrobial assay: According to the standard broth micro-dilution assays, following the Standards of European Committee on Antimicrobial Susceptibility Testing (v 7.3.1: Method for the determination of broth dilution minimum inhibitory concentrations of antifungal agents for yeasts) for Candida spp., and according to the standard broth micro-dilution assays, recommended by the National Committee for Clinical Laboratory Standards (M07-A8) for bacteria MIC values of compounds were determinate. Compounds were dissolved in DMSO at a concentration of 50 mg/mL, and the highest tested concentration was 250 µg/mL. The inoculums were 1x10^5 colony forming units (CFU/mL), for Candida species, and bacteria species, 5x10^5 colony forming units (CFU/mL). The MIC value was recorded as the lowest concentration that inhibited the growth after 24 h at 37 °C. Additionally, 5 µL from each well of 96 well plates was transferred to Luria Agar (LA) plates for bacteria and Sabouraud agar (SAB) plates for Candida spp. and incubated for an additional 24 h at 37 °C, to determine MBC (Minimum bactericidal/fungicidal concentration) values. In Table 1. Are labeled compounds showing a difference in MBC and previously determined MIC values. […]

Series [2] has as its system C. albicans ATCC10231. Briefly: Antimicrobial broth micro-dilution assay (MIC). The format is cell-based. The following applies: Candida albicans; C. albicans ATCC10231; 24 h at 37 °C; highest tested concentration 250 µg/mL; read-out: Minimum inhibitory concentration (MIC).
Description: as §1, §2
On the technique in general: In broth dilution the organism is exposed to a series of concentrations in liquid medium.

Series [3] has as its system E. coli NCTC9001. Briefly: Antimicrobial broth micro-dilution assay (MIC). In kind it is cell-based. The following applies: Escherichia coli; E. coli NCTC9001; 24 h at 37 °C; highest tested concentration 250 µg/mL; read-out: Minimum inhibitory concentration (MIC).
Description: as §1, §2

The test system of series [4] is P. aeruginosa ATCC27853. In words: Antimicrobial broth micro-dilution assay (MIC). The format is cell-based. The following applies: Pseudomonas aeruginosa; P. aeruginosa ATCC27853; 24 h at 37 °C; highest tested concentration 250 µg/mL; read-out: Minimum inhibitory concentration (MIC).
Description: as §1, §2

Series [5] has as its system S. aureus ATCC25923. In words: Antimicrobial broth micro-dilution assay (MIC). The format is cell-based. The following applies: Staphylococcus aureus; S. aureus ATCC25923; 24 h at 37 °C; highest tested concentration 250 µg/mL; read-out: Minimum inhibitory concentration (MIC).
Description: as §1, §2

In series [6] the test system is S. aureus MRSA. In words: Antimicrobial broth micro-dilution assay (MIC). The following applies: Staphylococcus aureus; S. aureus MRSA; 24 h at 37 °C; highest tested concentration 250 µg/mL; read-out: Minimum inhibitory concentration (MIC). The format is cell-based.
Description: as §1, §2

Series [7] concerns human lung fibroblast cell line (MRC-5). In words: Cytotoxicity evaluation by MTT assay. The format is cell-based.
Description: as §1
Antimicrobial assay: According to the standard broth micro-dilution assays, following the Standards of European Committee on Antimicrobial Susceptibility Testing (v 7.3.1: Method for the determination of broth dilution minimum inhibitory concentrations of antifungal agents for yeasts) for Candida spp., and according to the standard broth micro-dilution assays, recommended by the National Committee for Clinical Laboratory Standards (M07-A8) for bacteria MIC values of compounds were determinate. Compounds were dissolved in DMSO at a concentration of 50 mg/mL, and the highest tested concentration was 250 µg/mL. The inoculums were 1x10^5 colony forming units (CFU/mL), for Candida species, and bacteria species, 5x10^5 colony forming units (CFU/mL). The MIC value was recorded as the lowest concentration that inhibited the growth after 24 h at 37 °C. Additionally, 5 µL from each well of 96 well plates was transferred to Luria Agar (LA) plates for bacteria and Sabouraud agar (SAB) plates for Candida spp. and incubated for an additional 24 h at 37 °C, to determine MBC (Minimum bactericidal/fungicidal concentration) values. In Table 1. Are labeled compounds showing a difference in MBC and previously determined MIC values.
Cytotoxicity evaluation: Antiproliferative activity was tested by MTT assay (3-(4,5-dimethylthiazol-2-yl)-2,5-diphenyltetrazoliumbromide) on a human lung fibroblast cell line (MRC-5; ATCC collection). Pre-grown (24 h) cell monolayers (1x10^4 cells per well) in RPMI 1640 medium supplemented with 100 μg/mL streptomycin, 100 U/mL penicillin, and 10% (v/v) FBS (all from Sigma, Munich, Germany) containing the tested compounds at concentrations ranging from 5 to 20 μg/mL were incubated in a humidified atmosphere of 95% air and 5% CO2 at 37 °C for 48 h. The cell viability (extent of MTT reduction) was measured spectrophotometrically at 540 nm using the Epoch 2000 multiplate reader, and the cell survival was expressed as a percentage of the control (untreated cells). Cytotoxicity was expressed as the concentration of the compound inhibiting cell growth by 50% (IC 50). […]

In series [8] the test system is C. albicans ATCC 10231 hyphae formation. Briefly: Filamentation test on Candida (solid spider medium). The format is cell-based, Candida albicans. The settings on record: for relative activity in inhibition of filament formation (in words): compared with 36 and 41, sub-inhibitory concentrations. The method, then: Filamentation test on Candida: Using solid composition, the effect of sorrentano ne […]
albicans cells from an overnight culture grown in Sabouraud dextrose broth medium at 37 °C with or without compounds were centrifuged for 10 minutes at maximum speed, and the pellet was washed several times with sterile PBS (phosphate -buffered saline). After it, the pellet was resuspended in 200 µL PBS, and 2 µL of cell suspension was poured over solid composition and incubated at 37 °C for 120 h. Morphological changes of C. albicans ATCC

The subject of series [9] is C. albicans ATCC10231 biofilm formation. In words: Anti-biofilm activity assessment (crystal violet). The settings on record: for inhibition of biofilm formation (in words): data not shown. In kind it is cell-based, Candida albicans. The method, then: Anti-biofilm activity assessment: The effect of compounds on biofilms formation was determined on C. albicans ATCC 10231 strain. Anti -biofilm assays were conducted using a previously reported methodology with small modifica tions.9 The assay was carried out in 96 - well round-bottom polystyrene microtiter plates. Cells wer e harvested from overnight grown cultures, washed twice with sterile phosphate -buffered saline (PBS; Sigma -Aldrich, Munich, Germany), and resuspended in RPMI 1640 medium (Sigma -Aldrich) containing 2% glucose (w/v) at a concentration of 1 × 10^5 CFU/mL. C. albicans suspension was incubated with 0.5 MIC, 1 MIC, and 2 MIC compounds concentration in 200.0 μL final volume per well for 48 h at 37 °C to allow biofilm formation. Biofilm growth was analyzed by crystal violet (CV) staining of adherent cells and the a bsorbance at 590.0 nm was read on a Tecan Infinite 200 Pro multiplate reader (Tecan Group Ltd., Männedorf, Switzerland). […]

The test system of series [10] is ergosterol in C. albicans. Briefly: Ergosterol biosynthesis assay. The format is cell-based, Candida albicans. The settings on record: 0.5 MIC; Candida cells; UV profile. The method, then: Ergosterol biosynthesis assay: Ergosterol levels were measured according to the published procedure with some minor modifications. 10 Briefly, a sing le C. albicans colony from an overnight Sabouraud dextrose agar plate was used to inoculate 50 ml of Sabouraud dextrose broth containing 0.5 MIC concentrated compounds. Incubation was performed for 18 h at 37 °C on the rotary shaker at 180 rpm. Cells were harvested by centrifugation at 3000 rpm for 5 min and washed once with sterile distilled water. The net wet weight of the cell pellet was determined. Three milliliters of 25% alcoholic potassium hydroxide solution (25 g of KOH and 35 ml of sterile distill ed water, brought to 100 ml with 100% ethanol), was added to each pellet and vortex mixed for 1 min and incubated in an 85 °C water bath for 1 h. Tubes were cooled to room temperature and extraction of sterols was done with the addition of a mixture of 1 ml of sterile distilled water and 3 ml of n-heptane followed by vigorous vortex mixing for 3 min. The heptane layer was used for spectrophotometrically measuring ergosterol concentrations by scanning absorbance between 240 nm and 300 nm using Ultrospec 3300pro 573 (Amer sham Biosciences, Amersham, UK).

Series [11] concerns Bacillus subtilis. More on the design: method as in PMID 37687129, PMID 7622440. The following applies: cited from earlier work.
Series [12] deals with Enterococcus faecalis. Also noted: method as in PMID 37687129, PMID 7622440. The settings on record: cited from earlier work.
Series [13] deals with various Streptococcus and Staphylococcus species. More on the design: method as in PMID 37687129, PMID 7622440. The settings on record: cited from earlier work.
Series [14] concerns two S. aureus strains and B. subtilis ATCC6633. Briefly: Antimicrobial assay, Gram-positive bacteria. In kind it is cell-based. The following applies: from MIC values.
Description: as §1, §2

Take `C/C=C/C=C/C(=O)C1=C(C)C(=O)C(O)=C(C)C1=O` [compound 7, sorrentanone]: the MIC was 62.5 µg/mL (≈ 254 µM) in [1]; 125 µg/mL (≈ 508 µM) in series [2]; > 250 µg/mL in series [3]; > 250 µg/mL in [4]; 62.5 µg/mL (≈ 254 µM) in [5]; 31.2 µg/mL (≈ 127 µM) in [6]. The “in vitro toxicity ranking (in words)” value in series [7] (MRC-5 cells) was “highest toxicity”. For the same molecule, the “selectivity index (SI)” value in series [7] (cytotoxicity versus antibiotic activity, calculation not described) is 1.12. Besides, the “filamentation (in words)” value in series [8] (0.5 times MIC, 120 h, C. albicans ATCC10231) is recorded as “already show filamentation after 120 h”. Moreover, in series [8], the “relative activity in inhibition of filament formation (in words)” value was “less active”. The “inhibition of biofilm formation (in words)” value in series [9] was “displayed inhibition of biofilm formation”. Further, the “inhibition of biofilm formation” value in series [9] (sub-inhibitory concentration (0.5 times MIC), 48 h) is on record as 60–77%. For the same molecule, the “reduction of total amount of ergosterol (in words)” value in series [10] is “most potent in reducing the total amount of ergosterol”. In addition, the results for the IC50 in [11], in series [12] and in series [13] were 32.0 µg/mL (≈ 130 µM), 128 µg/mL (≈ 520 µM) and 16.0 to 64.0 µg/mL, respectively.
In the case of `C=CCCCOC(=O)C1=C(C)C(=O)C(O)=C(C)C1=O` [compound 39], the MIC in series [1] is 15.6 µg/mL (≈ 59 µM); in series [2], 62.5 µg/mL (≈ 236 µM); in series [3] it was > 250 µg/mL; in series [4], > 250 µg/mL; in series [5], 62.5 µg/mL (≈ 236 µM); in series [6], 62.5 µg/mL (≈ 236 µM). In addition, the “relative activity in inhibition of filament formation (in words)” value in [8] was “less active”. The “inhibition of biofilm formation (in words)” value in series [9] is “displayed inhibition of biofilm formation”. Besides, in [10], the “reduction of total amount of ergosterol (in words)” value is on record as “most potent in reducing the total amount of ergosterol”. For the same molecule, in [14], the “improvement of antibacterial activity compared to sorrentanone (7)” value was “two- to four-fold improved activity”.
